Counter-ions that a name gives are not always drawn.
Target: T1, Recombinant human renin (Homo sapiens, UniProt P00797)
T1 sequence (P00797 67-406): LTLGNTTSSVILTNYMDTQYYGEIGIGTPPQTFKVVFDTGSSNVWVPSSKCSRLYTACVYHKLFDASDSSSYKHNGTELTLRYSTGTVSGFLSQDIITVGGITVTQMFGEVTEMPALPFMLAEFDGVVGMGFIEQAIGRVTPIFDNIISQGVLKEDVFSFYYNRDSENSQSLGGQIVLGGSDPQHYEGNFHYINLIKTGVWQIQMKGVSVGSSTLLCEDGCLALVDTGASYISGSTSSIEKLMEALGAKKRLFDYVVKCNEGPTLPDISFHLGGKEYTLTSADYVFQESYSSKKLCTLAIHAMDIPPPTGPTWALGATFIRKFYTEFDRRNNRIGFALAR
Assay: In vitro renin inhibitory activity assay
Assay type: biochemical
Conditions: recombinant human renin 4.2 ng/mL, substrate 4 μM, 37° C., one hour, pH 7.4
Description: Experiment 1: In Vitro Renin Inhibitory Activity Assay
Recombinant human renin (4.2 ng/mL) was reacted in 0.1M HEPES buffer (pH 7.4) containing 0.1M NaCl, 1 mM EDTA and 0.1 mg/mL BSA together with a substrate and a test compound at 37° C. for one hour. As the substrate, Arg-Glu(EDANS)-Ile-His-Pro-Phe-His-Leu-Val-Ile-His-Thr-Lys(DABCYL)-Arg (SEQ ID NO: 1) or DABCYL-γ-Abu-Ile-His-Pro-Phe-His-Leu-Val-Ile-His-Thr-EDANS (SEQ ID NO: 2) was added in such an amount so that the final concentration thereof became 4 μM. The elevated fluorescence intensity at the exciting wavelength 340 nm and the fluorescence wavelength 500 nm was measured by a fluorescence plate reader. The concentration of a test compound to be needed to inhibit an enzyme activity in the presence of a test compound in several concentrations by 50% was calculated as an IC50 value. The test compounds were diluted in DMSO and used in this Experiment.

Row | Compound | IC50 [nM]
1 | CC(OC(=O)C(C)C)OC(=O)N1CCCC(N(C(=O)c2cc3c(cc2C(F)(F)F)OC2(CC2)C(=O)N3CCNC(=O)C(F)F)C(C)C)C1 (centres unmarked) [Example 72] | 22
2 | Cc1oc(=O)oc1COC(=O)N1CCC[C@@H](N(C(=O)c2cc3c(cc2C(F)(F)F)OC2(CC2)C(=O)N3CCNC(=O)C(F)F)C(C)C)C1 [Example 71] | 2.5
3 | CCC(=O)NCCN1C(=O)C(C)(C)Oc2cc(C)c(C(=O)N(C(C)C)[C@@H]3CCCN(C(=O)OC(C)OC(=O)C(C)C)C3)cc21 (stereo partly drawn) [Example 1, 1-(Isobutyryloxy)ethyl (3R)-3-[isopropyl({2,2,7-trimethyl-3-oxo-4-[2-(propionylamino)ethyl]-3,4-dihydro-2H-1,4-benzoxazin-6-yl}carbonyl)amino]piperidine-1-carboxylate] | 160
4 | CCC(=O)NCCN1C(=O)C(C)(C)Oc2cc(C)c(C(=O)N(C(C)C)[C@@H]3CCCN(C(=O)OCOC(=O)C(C)C)C3)cc21 [Example 4] | 42
5 | CCC(=O)NCCN1C(=O)C(C)(C)Oc2cc(C)c(C(=O)N(C(C)C)C3CCCN(C(=O)OC(C)OC(=O)C4CCOCC4)C3)cc21 (centres unmarked) [Example 60] | 3.2
6 | CCC(=O)NCCN1C(=O)C2(CC2)Oc2cc(C)c(C(=O)N(C(C)C)C3CCCN(C(=O)OC(C)OC(=O)C4CCOCC4)C3)cc21 (centres unmarked) [Example 43] | 69
7 | CCOC(=O)OC(C)OC(=O)N1CCCC(N(C(=O)c2cc3c(cc2C(F)(F)F)OC(C)(COC)C(=O)N3CCNC(=O)CC)C(C)C)C1 (centres unmarked) [Example 38] | 58
8 | CCC(=O)NCCN1C(=O)C2(CCC2)Oc2cc(C)c(C(=O)N(C(C)C)C3CCCN(C(=O)OC(OC(=O)CC)C(C)C)C3)cc21 (centres unmarked) [Example 46] | 74
9 | CCC(=O)NCCN1C(=O)C(C)(COC)Oc2cc(C)c(C(=O)N(C(C)C)C3CCCN(C(=O)OC(C)OC(=O)CC)C3)cc21 (centres unmarked) [Example 86] | 14
10 | CCC(=O)NCCN1C(=O)[C@](C)(COC)Oc2cc(C)c(C(=O)N(C(C)C)[C@@H]3CCCN(C(=O)O[C@@H](C)OC(=O)C(C)C)C3)cc21 [Example 94] | 1890
11 | CCC(=O)NCCN1C(=O)C(C)(C)Oc2cc(C(F)(F)F)c(C(=O)N(C(C)C)[C@@H]3CCCN(Cc4oc(=O)oc4C)C3)cc21 [Example 31, N-Isopropyl-2,2-dimethyl-N-{(3R)-1-[(5-methyl-2-oxo-1,3-dioxol-4-yl)methyl]piperidin-3-yl}-3-oxo-4-[2-(propionylamino)ethyl]-7-(trifluoromethyl)-3,4-dihydro-2H-1,4-benzoxazine-6-carboxamide] | 0.38
12 | CCC(=O)NCCN1C(=O)C(C)(C)Oc2cc(C)c(C(=O)N(C(C)C)C3CCCN(C(=O)OC(C)OC(=O)c4cccnc4)C3)cc21 (centres unmarked) [Example 59] | 38
13 | CCC(=O)NCCN1C(=O)C(C)(C)Oc2cc(C)c(C(=O)N(C(C)C)[C@@H]3CCCN(C(=O)O[C@@H](C)OC(=O)CC)C3)cc21 [Example 52] | 42
14 | CCC(=O)NCCN1C(=O)C(C)(C)Sc2cc(C(F)(F)F)c(C(=O)N(C(C)C)[C@@H]3CCCN(C(=O)OCc4oc(=O)oc4C)C3)cc21 [Example 30, (5-Methyl-2-oxo-1,3-dioxol-4-yl)methyl (3R)-3-[{[2,2-dimethyl-3-oxo-4-[2-(propionylamino)-ethyl]-7-(trifluoromethyl)-3,4-dihydro-2H-1,4-benzothiazin-6-yl]carbonyl}(isopropyl)amino]-piperidine-1-carboxylate] | 2.2
15 | CCC(=O)NCCN1C(=O)C(C)(C)Oc2cc(C)c(C(=O)N(C(C)C)C3CCCN(C(=O)OC(C)OC(=O)CC)C3)cc21 (centres unmarked) [Example 18] | 3.6
16 | CCC(=O)NCCN1C(=O)C(C)(C)Oc2cc(C)c(C(=O)N(C(C)C)[C@@H]3CCCN(C(=O)OC(C)OC(=O)CCCO)C3)cc21 (stereo partly drawn) [Example 63, 1-[(4-Hydroxybutanoyl)oxy]ethyl (3R)-3-[isopropyl({2,2,7-trimethyl-3-oxo-4-[2-(propionylamino)ethyl]-3,4-dihydro-2H-1,4-benzoxazin-6-yl}carbonyl)amino]piperidine-1-carboxylate] | 0.96
17 | CCC(=O)NCCN1C(=O)C(C)(C)Oc2cc(C)c(C(=O)N(C(C)C)[C@@H]3CCCN(C(=O)OCc4oc(=O)oc4-c4ccccc4)C3)cc21 [Example 7] | 1.3
18 | CCC(=O)NCCN1C(=O)C2(CC2)Oc2cc(C)c(C(=O)N(C(C)C)C3CCCN(C(=O)OC(C)OC(=O)CC)C3)cc21 (centres unmarked) [Example 41] | 68
19 | CCC(=O)NCCN1C(=O)C2(CCC2)Oc2cc(C)c(C(=O)N(C(C)C)C3CCCN(C(=O)OC(C)OC(=O)C4CCOCC4)C3)cc21 (centres unmarked) [Example 48] | 340
20 | CCC(=O)NCCN1C(=O)C(C)(C)Oc2cc(C)c(C(=O)N(C(C)C)[C@@H]3CCCN(C(=O)O[C@H](C)OC(=O)CC)C3)cc21 [Example 53] | 48
21 | CCC(=O)NCCN1C(=O)C2(CC2)Oc2cc(C)c(C(=O)N(C(C)C)[C@@H]3CCCN(C(=O)OCc4oc(=O)oc4C)C3)cc21 [Example 40] | 2.6

Row | Compound | IC50 [nM]
22 | CCC(=O)NCCN1C(=O)C2(CCC2)Oc2cc(C)c(C(=O)N(C(C)C)C3CCCN(C(=O)OC(C)OC(=O)CC(C)(C)O)C3)cc21 (centres unmarked) [Example 50] | 15
23 | CCC(=O)NCCN1C(=O)C(C)(C)Oc2cc(C)c(C(=O)N(C(C)C)C3CCCN(C(=O)OC(C)OC(=O)OC4CCCCC4)C3)cc21 (centres unmarked) [Example 54] | 13
24 | CCC(=O)NCCN1C(=O)C(C)(C)Oc2cc(C)c(C(=O)N(C(C)C)[C@@H]3CCCN(C(=O)OCOC(=O)OCC4CC4)C3)cc21 [Example 11] | 460
25 | CCC(=O)NCCN1C(=O)C(C)(COC)Oc2cc(C(F)(F)F)c(C(=O)N(C(C)C)C3CCCN(C(=O)OC(C)OC(=O)C(C)C)C3)cc21 (centres unmarked) [Example 74] | 22
26 | CCOC(=O)O[C@H](C)OC(=O)N1CCC[C@@H](N(C(=O)c2cc3c(cc2C)OC(C)(C)C(=O)N3CCNC(=O)CC)C(C)C)C1 [Example 91] | 710
27 | CCC(=O)NCCN1C(=O)C2(CCC2)Oc2cc(C)c(C(=O)N(C(C)C)C3CCCN(C(=O)OC(C)OC(=O)C(F)F)C3)cc21 (centres unmarked) [Example 97] | 0.13
28 | CCC(=O)NCCN1C(=O)C(C)(C)Oc2cc(C)c(C(=O)N(C(C)C)[C@@H]3CCCN(C(=O)O[C@@H](C)OC(=O)C(C)C)C3)cc21 [Example 66] | 1230
29 | CCC(=O)NCCN1C(=O)C(C)(C)Oc2cc(C)c(C(=O)N(C(C)C)C3CCCN(C(=O)OC(C)OC(=O)C(N)C(C)C)C3)cc21 (centres unmarked) [Example 62] | 2.8
30 | CCC(=O)NCCN1C(=O)C(C)(C)Oc2cc(C)c(C(=O)N(C(C)C)C3CCCN(C(=O)OC(C)OC(=O)OC(C)C)C3)cc21 (centres unmarked) [Example 8] | 410
31 | CCC(=O)NCCN1C(=O)C(C)(C)Oc2cc(C)c(C(=O)N(C(C)C)C3CCCN(C(=O)OC(OC(=O)CC)C(C)C)C3)cc21 (centres unmarked) [Example 20] | 91
32 | CCC(=O)NCCN1C(=O)C2(CCC2)Oc2cc(C)c(C(=O)N(C(C)C)[C@@H]3CCCN(C(=O)OC(C)OC(=O)c4cccnc4)C3)cc21 (stereo partly drawn) [Example 89, 1-[({(3R)-3-[({7-Methyl-3-oxo-4-[2-(propanoylamino)ethyl]-3,4-dihydrospiro[1,4-benzoxazine-2,1′-cyclobutan]-6-yl}carbonyl)(2-propanyl)amino]-1-piperidinyl}carbonyl)oxy]ethyl 3-pyridine carboxylate] | 1.9
33 | CCOC(=O)OC(C)OC(=O)N1CCCC(N(C(=O)c2cc3c(cc2C)OC2(CCC2)C(=O)N3CCNC(=O)CC)C(C)C)C1 (centres unmarked) [Example 34] | 140
34 | CCC(=O)NCCN1C(=O)C2(CC2)Oc2cc(C)c(C(=O)N(C(C)C)C3CCCN(C(=O)OC(C)OC(=O)C(C)C)C3)cc21 (centres unmarked) [Example 42] | 15
35 | CCOC(=O)O[C@@H](C)OC(=O)N1CCC[C@@H](N(C(=O)c2cc3c(cc2C)OC(C)(C)C(=O)N3CCNC(=O)CC)C(C)C)C1 [Example 90] | 730
36 | CCC(=O)NCCN1C(=O)C(C)(C)Oc2cc(C)c(C(=O)N(C(C)C)C3CCCN(C(=O)OC(C)OC(=O)C4CCOCC4)C3)cc21 (single isomer, unassigned) [Example 88] | 9.6
37 | CCC(=O)NCCN1C(=O)C(C)(C)Oc2cc(C)c(C(=O)N(C(C)C)[C@@H]3CCCN(C(=O)OCOC(=O)OC4CCC4)C3)cc21 [Example 12] | 160
38 | CCC(=O)NCCN1C(=O)C2(CCC2)Sc2cc(C)c(C(=O)N(C(C)C)[C@@H]3CCCN(C(=O)OCc4oc(=O)oc4C)C3)cc21 [Example 78] | 20
39 | CCC(=O)NCCN1C(=O)C(C)(COC)Oc2cc(C(F)(F)F)c(C(=O)N(C(C)C)C3CCCN(C(=O)OC(OC(=O)CC)C(C)C)C3)cc21 (centres unmarked) [Example 75] | 0.74
40 | CCC(=O)NCCN1C(=O)C2(CCC2)Oc2cc(C)c(C(=O)N(C(C)C)C3CCCN(C(=O)OC(OC(=O)C(C)C)C(C)C)C3)cc21 (centres unmarked) [Example 45] | 52
41 | CCC(=O)NCCN1C(=O)C(C)(C)Oc2cc(C(F)(F)F)c(C(=O)N(C(C)C)[C@@H]3CCCN(C(=O)[C@@H](N)C(C)C)C3)cc21 [Example 22, N-Isopropyl-2,2-dimethyl-3-oxo-4-[2-(propionylamino)ethyl]-7-(trifluoromethyl)-N-[(3R)-1-L-valylpiperidin-3-yl]-3,4-dihydro-2H-1,4-benzoxazine-6-carboxamide hydrochloride] | 85

From US8658639B2, “N-substituted-cyclic amino derivative” (Dainippon Sumitomo Pharma Co., Ltd, priority 2009, dated 2014)
